Test results published in ChEMBL document CHEMBL4804286, “3-amino-4-(4-(4 (dimethylcarbamoyl) phenyl)-1,4-diazepan-1-yl) thieno [2,3-b] pyridine-2-carboxamide for use in cancer therapy and formulations comprising the same” (2020).
“And” between values parts separate entries of the source, which are not always exact repeats. Equal entries are not always repeated. The source made the active and inactive calls. The calls are words filed in the database; no cut-off is given here.

What was measured:
[1] = target: 5'-AMP-activated protein kinase catalytic subunit alpha-2 (Homo sapiens) (UniProt P54646); assay: Inhibition of human AMPK-alpha2 assessed as percent of control at 2000 nM by KINOMEscan assay relative to control; design: scale not given: the % may be the effect or the level left
[2] = target: Atypical kinase COQ8A, mitochondrial (Homo sapiens) (UniProt Q8NI60); assay: Inhibition of human ADCK3 assessed as percent of control at 2000 nM by KINOMEscan assay relative to control; design: scale not given: the % may be the effect or the level left
[3] = target: Tyrosine-protein kinase FRK (Homo sapiens) (UniProt P42685); assay: Inhibition of human FRK assessed as percent of control at 2000 nM by KINOMEscan assay relative to control; design: scale not given: the % may be the effect or the level left
[4] = target: Mitogen-activated protein kinase 13 (Homo sapiens) (UniProt O15264); assay: Inhibition of human p38-delta assessed as percent of control at 2000 nM by KINOMEscan assay relative to control; design: scale not given: the % may be the effect or the level left
[5] = target: Tyrosine-protein kinase HCK (Homo sapiens) (UniProt P08631); assay: Inhibition of human HCK assessed as percent of control at 2000 nM by KINOMEscan assay relative to control; design: scale not given: the % may be the effect or the level left
Tyrosine-protein kinase HCK (Homo sapiens), sequence (P08631 2-526 limits assumed): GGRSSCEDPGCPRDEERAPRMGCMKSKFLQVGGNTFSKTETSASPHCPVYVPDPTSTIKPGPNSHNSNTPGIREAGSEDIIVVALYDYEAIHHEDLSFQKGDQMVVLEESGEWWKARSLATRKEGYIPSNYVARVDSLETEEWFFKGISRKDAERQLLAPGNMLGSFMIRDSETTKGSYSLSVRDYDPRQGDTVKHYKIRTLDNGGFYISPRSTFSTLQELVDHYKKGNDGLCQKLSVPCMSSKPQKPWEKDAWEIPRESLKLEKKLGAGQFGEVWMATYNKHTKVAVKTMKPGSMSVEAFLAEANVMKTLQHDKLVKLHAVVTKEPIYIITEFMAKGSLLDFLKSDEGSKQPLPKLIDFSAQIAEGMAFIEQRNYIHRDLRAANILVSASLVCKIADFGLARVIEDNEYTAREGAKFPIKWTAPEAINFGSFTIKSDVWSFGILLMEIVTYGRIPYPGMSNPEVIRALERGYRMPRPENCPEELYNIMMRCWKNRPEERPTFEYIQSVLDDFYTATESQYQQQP

[6] = test system: Receptor-type tyrosine-protein kinase FLT3 (Homo sapiens), P36888 [K663Q]; assay: Inhibition of human FLT3 K663Q mutant assessed as percent of control at 2000 nM by KINOMEscan assay relative to control; design: scale not given: the % may be the effect or the level left
[7] = target: Cyclin-dependent kinase 4 (Homo sapiens) (UniProt P11802); assay: Inhibition of human CDK4 assessed as percent of control at 2000 nM by KINOMEscan assay relative to control; design: scale not given: the % may be the effect or the level left
[8] = target: Epidermal growth factor receptor (Homo sapiens) (UniProt P00533); assay: Inhibition of human EGFR assessed as percent of control at 2000 nM by KINOMEscan assay relative to control; design: scale not given: the % may be the effect or the level left
[9] = target: Aurora kinase A (Homo sapiens) (UniProt O14965); assay: Inhibition of human AURKA assessed as percent of control at 2000 nM by KINOMEscan assay relative to control; design: scale not given: the % may be the effect or the level left
[10] = test system: ALK tyrosine kinase receptor (Homo sapiens), Q9UM73 [L1196M]; assay: Inhibition of human ALK L1196M mutant assessed as percent of control at 2000 nM by KINOMEscan assay relative to control; design: scale not given: the % may be the effect or the level left
[11] = target: Receptor tyrosine-protein kinase erbB-4 (Homo sapiens) (UniProt Q15303); assay: Inhibition of human ERBB4 assessed as percent of control at 2000 nM by KINOMEscan assay relative to control; design: scale not given: the % may be the effect or the level left
[12] = target: High affinity nerve growth factor receptor (Homo sapiens) (UniProt P04629); assay: Inhibition of human TRKA assessed as percent of control at 2000 nM by KINOMEscan assay relative to control; design: scale not given: the % may be the effect or the level left
[13] = target: Mitogen-activated protein kinase 15 (Homo sapiens) (UniProt Q8TD08); assay: Inhibition of human ERK8 assessed as percent of control at 2000 nM by KINOMEscan assay relative to control; design: scale not given: the % may be the effect or the level left
[14] = target: Cyclin-dependent kinase 4/cyclin D1 (Homo sapiens) (UniProt P11802+P24385); assay: Inhibition of human CDK4/cyclin D1 assessed as percent of control at 2000 nM by KINOMEscan assay relative to control; type: protein-complex assay; design: scale not given: the % may be the effect or the level left
[15] = target: Tyrosine-protein kinase TXK (Homo sapiens) (UniProt P42681); assay: Inhibition of human TXK assessed as percent of control at 2000 nM by KINOMEscan assay relative to control; design: scale not given: the % may be the effect or the level left
Tyrosine-protein kinase TXK (Homo sapiens), sequence (P42681 whole entry): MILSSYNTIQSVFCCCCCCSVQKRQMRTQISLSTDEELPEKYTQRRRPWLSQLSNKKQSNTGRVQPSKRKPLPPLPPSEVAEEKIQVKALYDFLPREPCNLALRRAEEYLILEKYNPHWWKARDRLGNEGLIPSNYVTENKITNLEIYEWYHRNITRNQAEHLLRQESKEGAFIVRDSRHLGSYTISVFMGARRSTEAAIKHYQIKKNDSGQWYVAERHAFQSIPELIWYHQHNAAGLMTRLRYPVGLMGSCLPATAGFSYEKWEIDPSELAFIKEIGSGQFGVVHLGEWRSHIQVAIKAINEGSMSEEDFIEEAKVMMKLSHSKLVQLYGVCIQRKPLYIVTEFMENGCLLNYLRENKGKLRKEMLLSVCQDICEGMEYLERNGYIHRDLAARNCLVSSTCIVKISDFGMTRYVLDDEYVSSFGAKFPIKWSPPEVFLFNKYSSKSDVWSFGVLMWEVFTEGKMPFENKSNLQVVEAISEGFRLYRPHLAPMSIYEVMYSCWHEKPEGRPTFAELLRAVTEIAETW

[16] = test system: Proto-oncogene tyrosine-protein kinase receptor Ret (Homo sapiens), P07949 [V804L]; assay: Inhibition of human RET V804L mutant assessed as percent of control at 2000 nM by KINOMEscan assay relative to control; design: scale not given: the % may be the effect or the level left
[17] = test system: Receptor-type tyrosine-protein kinase FLT3 (Homo sapiens), P36888 [UNDEFINED MUTATION]; assay: Inhibition of human FLT3 ITD mutant assessed as percent of control at 2000 nM by KINOMEscan assay relative to control; design: scale not given: the % may be the effect or the level left
[18] = target: MAP kinase-activated protein kinase 2 (Homo sapiens) (UniProt P49137); assay: Inhibition of human MAPKAPK2 assessed as percent of control at 2000 nM by KINOMEscan assay relative to control; design: scale not given: the % may be the effect or the level left
[19] = target: Casein kinase II subunit alpha' (Homo sapiens) (UniProt P19784); assay: Inhibition of human CSNK2A2 assessed as percent of control at 2000 nM by KINOMEscan assay relative to control; design: scale not given: the % may be the effect or the level left
Casein kinase II subunit alpha' (Homo sapiens), sequence (P19784 whole entry, looked up): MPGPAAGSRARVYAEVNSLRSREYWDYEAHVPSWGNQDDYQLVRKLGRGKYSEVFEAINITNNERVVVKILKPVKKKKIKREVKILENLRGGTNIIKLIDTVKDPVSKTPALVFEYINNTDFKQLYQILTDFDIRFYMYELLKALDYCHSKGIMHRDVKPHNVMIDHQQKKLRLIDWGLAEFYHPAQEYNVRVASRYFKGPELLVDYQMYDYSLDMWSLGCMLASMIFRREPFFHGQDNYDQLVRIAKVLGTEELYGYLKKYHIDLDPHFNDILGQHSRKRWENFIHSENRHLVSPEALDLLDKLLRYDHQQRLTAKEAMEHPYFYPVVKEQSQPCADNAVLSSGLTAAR

[20] = target: Mast/stem cell growth factor receptor Kit (Homo sapiens) (UniProt P10721); assay: Inhibition of human autoinhibited KIT assessed as percent of control at 2000 nM by KINOMEscan assay relative to control; design: scale not given: the % may be the effect or the level left
[21] = target: Serine/threonine-protein kinase WNK2 (Homo sapiens) (UniProt Q9Y3S1); assay: Inhibition of human WNK2 assessed as percent of control at 2000 nM by KINOMEscan assay relative to control; design: scale not given: the % may be the effect or the level left
[22] = target: Ephrin type-B receptor 2 (Homo sapiens) (UniProt P29323); assay: Inhibition of human EPHB2 assessed as percent of control at 2000 nM by KINOMEscan assay relative to control; design: scale not given: the % may be the effect or the level left
[23] = target: Cyclin-dependent kinase-like 1 (Homo sapiens) (UniProt Q00532); assay: Inhibition of human CDKL1 assessed as percent of control at 2000 nM by KINOMEscan assay relative to control; design: scale not given: the % may be the effect or the level left
Cyclin-dependent kinase-like 1 (Homo sapiens), sequence (Q00532 whole entry): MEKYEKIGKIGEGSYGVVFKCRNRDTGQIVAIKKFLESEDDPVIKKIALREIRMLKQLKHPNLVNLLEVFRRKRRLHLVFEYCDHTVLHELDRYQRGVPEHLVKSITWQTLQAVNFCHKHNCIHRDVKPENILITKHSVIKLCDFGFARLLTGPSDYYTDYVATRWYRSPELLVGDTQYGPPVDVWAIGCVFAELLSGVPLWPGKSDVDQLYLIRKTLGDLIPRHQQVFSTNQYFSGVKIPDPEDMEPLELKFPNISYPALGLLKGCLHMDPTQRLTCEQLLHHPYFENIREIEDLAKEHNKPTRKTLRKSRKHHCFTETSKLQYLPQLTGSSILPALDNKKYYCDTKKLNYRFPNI

[24] = test system: 4T1; assay: Antitumor activity against murine 4T1 cells xenografted in mouse assessed as suppression of tumor volume at 25 mg/kg, po administered twice a day; type: functional, organism-based
[25] = target: Cyclin-G-associated kinase (Homo sapiens) (UniProt O14976); assay: Inhibition of human GAK assessed as percent of control at 2000 nM by KINOMEscan assay relative to control; design: scale not given: the % may be the effect or the level left
Cyclin-G-associated kinase (Homo sapiens), sequence (O14976 whole entry): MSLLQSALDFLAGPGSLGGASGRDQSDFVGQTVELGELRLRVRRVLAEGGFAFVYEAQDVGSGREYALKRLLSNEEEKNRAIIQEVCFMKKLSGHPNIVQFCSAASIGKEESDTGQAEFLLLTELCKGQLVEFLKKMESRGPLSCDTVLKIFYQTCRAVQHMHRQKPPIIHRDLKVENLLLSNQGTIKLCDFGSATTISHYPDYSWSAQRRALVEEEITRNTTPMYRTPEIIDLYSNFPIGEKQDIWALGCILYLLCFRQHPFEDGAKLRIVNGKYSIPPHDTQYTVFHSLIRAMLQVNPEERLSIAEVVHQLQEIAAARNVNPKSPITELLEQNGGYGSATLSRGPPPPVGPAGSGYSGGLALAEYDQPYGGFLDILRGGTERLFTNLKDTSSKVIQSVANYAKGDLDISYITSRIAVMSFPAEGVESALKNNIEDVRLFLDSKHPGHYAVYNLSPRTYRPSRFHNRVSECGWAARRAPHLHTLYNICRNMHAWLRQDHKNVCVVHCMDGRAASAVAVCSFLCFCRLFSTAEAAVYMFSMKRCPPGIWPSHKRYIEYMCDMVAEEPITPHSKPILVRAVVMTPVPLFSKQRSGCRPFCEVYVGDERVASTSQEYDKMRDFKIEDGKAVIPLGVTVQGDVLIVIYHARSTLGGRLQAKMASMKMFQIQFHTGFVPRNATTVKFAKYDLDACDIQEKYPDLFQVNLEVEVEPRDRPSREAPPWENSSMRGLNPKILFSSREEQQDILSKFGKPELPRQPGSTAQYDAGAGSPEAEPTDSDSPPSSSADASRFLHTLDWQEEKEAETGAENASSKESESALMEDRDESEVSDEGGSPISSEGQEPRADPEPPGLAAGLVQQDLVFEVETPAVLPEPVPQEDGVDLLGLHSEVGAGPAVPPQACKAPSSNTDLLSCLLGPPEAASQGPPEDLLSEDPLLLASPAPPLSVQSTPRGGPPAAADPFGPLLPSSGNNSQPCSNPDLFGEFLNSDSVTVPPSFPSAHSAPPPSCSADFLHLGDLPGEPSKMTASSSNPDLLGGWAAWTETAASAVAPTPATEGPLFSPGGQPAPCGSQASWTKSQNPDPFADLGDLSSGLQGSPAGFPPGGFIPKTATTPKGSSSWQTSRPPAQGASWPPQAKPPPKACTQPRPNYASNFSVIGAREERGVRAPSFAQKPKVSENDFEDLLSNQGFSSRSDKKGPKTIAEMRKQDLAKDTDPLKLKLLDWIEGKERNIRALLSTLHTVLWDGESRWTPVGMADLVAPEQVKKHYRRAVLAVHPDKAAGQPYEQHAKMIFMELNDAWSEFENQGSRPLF

[26] = target: Serine/threonine-protein kinase pim-2 (Homo sapiens) (UniProt Q9P1W9); assay: Inhibition of human PIM2 assessed as percent of control at 2000 nM by KINOMEscan assay relative to control; design: scale not given: the % may be the effect or the level left
Serine/threonine-protein kinase pim-2 (Homo sapiens), sequence (Q9P1W9 whole entry, looked up): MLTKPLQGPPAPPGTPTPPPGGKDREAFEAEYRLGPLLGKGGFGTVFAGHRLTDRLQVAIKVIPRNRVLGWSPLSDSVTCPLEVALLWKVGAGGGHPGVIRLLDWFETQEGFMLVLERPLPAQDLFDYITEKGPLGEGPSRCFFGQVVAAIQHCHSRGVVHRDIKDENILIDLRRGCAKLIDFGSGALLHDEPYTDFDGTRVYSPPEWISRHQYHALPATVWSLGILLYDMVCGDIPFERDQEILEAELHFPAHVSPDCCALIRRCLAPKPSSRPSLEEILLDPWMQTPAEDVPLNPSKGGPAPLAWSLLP

[27] = target: Mitotic checkpoint serine/threonine-protein kinase BUB1 (Homo sapiens) (UniProt O43683); assay: Inhibition of human BUB1 assessed as percent of control at 2000 nM by KINOMEscan assay relative to control; design: scale not given: the % may be the effect or the level left
Mitotic checkpoint serine/threonine-protein kinase BUB1 (Homo sapiens), sequence (O43683 whole entry, looked up): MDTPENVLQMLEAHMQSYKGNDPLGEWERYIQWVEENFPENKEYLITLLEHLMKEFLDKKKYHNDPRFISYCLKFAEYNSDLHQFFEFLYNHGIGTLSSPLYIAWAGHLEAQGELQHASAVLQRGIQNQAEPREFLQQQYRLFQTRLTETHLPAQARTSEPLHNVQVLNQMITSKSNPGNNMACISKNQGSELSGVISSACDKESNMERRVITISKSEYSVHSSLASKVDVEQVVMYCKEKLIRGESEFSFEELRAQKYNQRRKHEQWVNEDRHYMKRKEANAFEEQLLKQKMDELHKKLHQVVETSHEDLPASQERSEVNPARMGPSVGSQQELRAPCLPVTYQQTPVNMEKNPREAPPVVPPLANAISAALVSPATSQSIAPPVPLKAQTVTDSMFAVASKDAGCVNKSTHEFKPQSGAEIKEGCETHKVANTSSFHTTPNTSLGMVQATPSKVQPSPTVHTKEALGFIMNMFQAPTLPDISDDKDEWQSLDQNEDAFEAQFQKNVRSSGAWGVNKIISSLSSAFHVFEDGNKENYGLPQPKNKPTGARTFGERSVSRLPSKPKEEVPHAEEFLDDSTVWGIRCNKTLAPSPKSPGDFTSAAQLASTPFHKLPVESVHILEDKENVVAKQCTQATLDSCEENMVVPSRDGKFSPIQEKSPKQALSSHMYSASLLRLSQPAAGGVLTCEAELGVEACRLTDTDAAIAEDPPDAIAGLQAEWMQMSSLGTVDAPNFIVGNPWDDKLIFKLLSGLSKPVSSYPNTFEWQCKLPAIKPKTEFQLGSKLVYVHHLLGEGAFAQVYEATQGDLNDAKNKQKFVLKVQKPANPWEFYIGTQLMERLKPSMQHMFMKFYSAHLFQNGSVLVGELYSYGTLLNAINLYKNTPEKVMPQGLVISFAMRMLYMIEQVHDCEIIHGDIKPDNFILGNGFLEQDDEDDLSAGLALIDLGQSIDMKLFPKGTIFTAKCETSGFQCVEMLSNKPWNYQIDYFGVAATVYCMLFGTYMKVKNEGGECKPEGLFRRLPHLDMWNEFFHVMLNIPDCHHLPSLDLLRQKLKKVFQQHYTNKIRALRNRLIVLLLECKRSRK

[28] = target: TGF-beta receptor type-2 (Homo sapiens) (UniProt P37173); assay: Inhibition of human TGFBR2 assessed as percent of control at 2000 nM by KINOMEscan assay relative to control; design: scale not given: the % may be the effect or the level left
TGF-beta receptor type-2 (Homo sapiens), sequence (P37173 whole entry): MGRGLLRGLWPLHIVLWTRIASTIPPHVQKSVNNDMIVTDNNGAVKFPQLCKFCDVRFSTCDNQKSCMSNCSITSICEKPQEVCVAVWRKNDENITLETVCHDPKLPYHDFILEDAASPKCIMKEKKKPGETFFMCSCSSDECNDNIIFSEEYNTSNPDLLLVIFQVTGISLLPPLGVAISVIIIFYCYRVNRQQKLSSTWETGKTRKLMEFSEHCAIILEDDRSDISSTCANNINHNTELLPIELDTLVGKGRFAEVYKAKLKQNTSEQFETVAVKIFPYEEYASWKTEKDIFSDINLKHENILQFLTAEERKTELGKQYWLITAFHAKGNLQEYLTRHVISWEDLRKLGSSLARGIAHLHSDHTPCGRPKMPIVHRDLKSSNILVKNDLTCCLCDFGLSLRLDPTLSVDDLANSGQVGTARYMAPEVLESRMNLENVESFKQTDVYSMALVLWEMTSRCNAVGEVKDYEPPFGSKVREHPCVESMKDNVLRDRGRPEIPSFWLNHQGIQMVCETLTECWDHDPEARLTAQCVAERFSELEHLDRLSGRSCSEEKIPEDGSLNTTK

[29] = target: Serine/threonine-protein kinase SIK2 (Homo sapiens) (UniProt Q9H0K1); assay: Inhibition of human SIK2 assessed as percent of control at 2000 nM by KINOMEscan assay relative to control; design: scale not given: the % may be the effect or the level left
[30] = target: Epithelial discoidin domain-containing receptor 1 (Homo sapiens) (UniProt Q08345); assay: Inhibition of human DDR1 assessed as percent of control at 2000 nM by KINOMEscan assay relative to control; design: scale not given: the % may be the effect or the level left
[31] = target: Dual specificity mitogen-activated protein kinase kinase 3 (Homo sapiens) (UniProt P46734); assay: Inhibition of human MEK3 assessed as percent of control at 2000 nM by KINOMEscan assay relative to control; design: scale not given: the % may be the effect or the level left

For `CN(C)C(=O)c1ccc(N2CCCN(c3ccnc4sc(C(N)=O)c(N)c34)CC2)cc1`, the Activity [1] was 80% and 95%, the Activity [2] was 90% and 100% and the Activity [3] was 100% and 97%. For the same compound, the Activity [4] was 96% and 97%, the Activity [5] was 96% and the Activity [6] was 96% and 91%. The Activity [7] was 73% and 71%, the Activity [8] was 100% and 87% and the Activity [9] was 98% and 99%. The Activity [10] was 96% and 92%, the Activity [11] was 85% and 100% and the Activity [12] was 93% and 78%. For the same compound, the Activity [13] was 98% and 99%, the Activity [14] was 94% and 96% and the Activity [15] was 93% and 100%. For the same compound, the Activity [16] was 100%, the Activity [17] was 82% and 72% and the Activity [18] was 91% and 99%. For the same compound, the Activity [19] was 92% and 100%, the Activity [20] was 90% and the Activity [21] was 96% and 94%. The Activity [22] was 99% and 95%, the Activity [23] was 100% and 92% and the Activity [24] was “Active”. The Activity [25] was 88% and 94%, the Activity [26] was 85% and 89% and the Activity [27] was 88% and 80%. For the same compound, the Activity [28] was 100%, the Activity [29] was 96% and 100% and the Activity [30] was 82% and 90%. It also gave an Activity [31] of 68% and an Activity ([31]; INHIBITOR) of 47%.
